# How the values were obtained:
# [1] = Inhibition of HCV 1a protease 1a domain; set-up: species or system Hepacivirus hominis
# Hepatitis C virus [2] = test: Antiviral activity against Hepatitis C virus subtype 1b by stable replicon assay; format: functional, organism-based, Hepacivirus hominis; details: genotype 1b
# Hepatitis C virus [3] = test: Antiviral activity against Hepatitis C virus subtype 1a by stable replicon assay; format: functional, organism-based, Hepacivirus hominis
# Hepatitis C virus [4] = test: Antiviral activity against Hepatitis C virus subtype 1b harboring protease D168V mutant by transient replicon assay; format: functional, organism-based, Hepacivirus hominis; details: genotype 1b
# Hepatitis C virus [5] = test: Antiviral activity against Hepatitis C virus subtype 1b harboring protease D168A mutant by transient replicon assay; format: functional, organism-based, Hepacivirus hominis; details: genotype 1b
# Hepatitis C virus [6] = test: Antiviral activity against Hepatitis C virus subtype 1b harboring protease A156V mutant by transient replicon assay; format: functional, organism-based, Hepacivirus hominis; details: genotype 1b
# Hepatitis C virus [7] = test: Antiviral activity against Hepatitis C virus subtype 1b harboring protease A156T mutant by transient replicon assay; format: functional, organism-based, Hepacivirus hominis; details: genotype 1b
# Hepatitis C virus [8] = test: Antiviral activity against Hepatitis C virus subtype 1b harboring protease A156S mutant by transient replicon assay; format: functional, organism-based, Hepacivirus hominis; details: genotype 1b
# Hepatitis C virus [9] = test: Antiviral activity against wild type Hepatitis C virus subtype 1b by transient replicon assay; format: functional, organism-based, Hepacivirus hominis; details: genotype 1b
# Hepatitis C virus [10] = test: Antiviral activity against Hepatitis C virus subtype 1b harboring protease R155K mutant by transient replicon assay; format: functional, organism-based, Hepacivirus hominis; details: genotype 1b
SMILES,IC50 [1] [nM],EC50 (Hepatitis C virus [2]) [nM],EC50 (Hepatitis C virus [3]) [nM],EC50 (Hepatitis C virus [4]) [nM],EC50 (Hepatitis C virus [5]) [nM],EC50 (Hepatitis C virus [6]) [nM],EC50 (Hepatitis C virus [7]) [nM],EC50 (Hepatitis C virus [8]) [nM],EC50 (Hepatitis C virus [9]) [nM],EC50 (Hepatitis C virus [10]) [nM]
COc1ccc2c(O[C@@H]3C[C@H]4C(=O)N[C@]5(C(=O)NS(=O)(=O)C6CC6)C[C@H]5/C=C\CCCCC[C@H](NC(=O)NCc5ccc6c(c5)B(O)OC6)C(=O)N4C3)cc(-c3nc(C(C)C)cs3)nc2c1C,2,0.8,3.4,144,249,9,7,0.2,0.9,49
COc1ccc2c(O[C@@H]3C[C@H]4C(=O)N[C@]5(C(=O)NS(=O)(=O)C6CC6)C[C@H]5/C=C\CCCCC[C@H](NC(=O)NCc5ccc(CO)c(O)c5)C(=O)N4C3)cc(-c3nc(C(C)C)cs3)nc2c1C,0.5,1.1,15.5,,,,,,,
COc1ccc2c(O[C@@H]3C[C@H]4C(=O)N[C@]5(C(=O)NS(=O)(=O)C6CC6)C[C@H]5/C=C\CCCCC[C@H](NC(N)=O)C(=O)N4C3)cc(-c3nc(C(C)C)cs3)nc2c1C,2,0.5,1.8,2260,873,16,6,,0.4,66
COc1ccc2c(O[C@@H]3C[C@H]4C(=O)N[C@]5(C(=O)NS(=O)(=O)C6CC6)C[C@H]5/C=C\CCCCC[C@H](NC(=O)N(C)C)C(=O)N4C3)cc(-c3nc(C(C)C)cs3)nc2c1C,2,0.1,0.3,57,36,5,1,,0.04,10
CCN(CC)C(=O)N[C@H]1CCCCC/C=C\[C@@H]2C[C@@]2(C(=O)NS(=O)(=O)C2CC2)NC(=O)[C@@H]2C[C@@H](Oc3cc(-c4nc(C(C)C)cs4)nc4c(C)c(OC)ccc34)CN2C1=O,1,0.7,0.9,131,56,8,2,0.5,0.1,15
COc1ccc2c(O[C@@H]3C[C@H]4C(=O)N[C@]5(C(=O)NS(=O)(=O)C6CC6)C[C@H]5/C=C\CCCCC[C@H](NC(=O)N5CCOCC5)C(=O)N4C3)cc(-c3nc(C(C)C)cs3)nc2c1C,2,0.5,0.3,33,17,2,0.2,0.03,0.01,4
COc1ccc2c(O[C@@H]3C[C@H]4C(=O)N[C@]5(C(=O)NS(=O)(=O)C6CC6)C[C@H]5/C=C\CCCCC[C@H](NC(=O)N5CCCC5)C(=O)N4C3)cc(-c3nc(C(C)C)cs3)nc2c1C,4,0.4,0.4,200,86,9,2,0.2,0.1,15
COc1ccc2c(O[C@@H]3C[C@H]4C(=O)N[C@]5(C(=O)NS(=O)(=O)C6CC6)C[C@H]5/C=C\CCCCC[C@H](NC(=O)N5CCC(C)(C)C5)C(=O)N4C3)cc(-c3nc(C(C)C)cs3)nc2c1C,2,0.5,0.6,138,28,11,2,,0.1,17
COc1ccc2c(O[C@@H]3C[C@H]4C(=O)N[C@]5(C(=O)NS(=O)(=O)C6CC6)C[C@H]5/C=C\CCCCC[C@H](NC(=O)N5CCC(O)CC5)C(=O)N4C3)cc(-c3nc(C(C)C)cs3)nc2c1C,2,0.3,0.6,154,42,9,2,,0.1,7
COc1ccc2c(O[C@@H]3C[C@H]4C(=O)N[C@]5(C(=O)NS(=O)(=O)C6CC6)C[C@H]5/C=C\CCCCC[C@H](NC(=O)N5CCC(CO)CC5)C(=O)N4C3)cc(-c3nc(C(C)C)cs3)nc2c1C,1,0.3,0.7,141,47,9,2,,0.1,14
COc1ccc2c(O[C@@H]3C[C@H]4C(=O)N[C@]5(C(=O)NS(=O)(=O)C6CC6)C[C@H]5/C=C\CCCCC[C@H](NC(=O)N5CCC(CC(N)=O)CC5)C(=O)N4C3)cc(-c3nc(C(C)C)cs3)nc2c1C,2,1.5,5.6,,431,10,3,0.1,0.2,65
COc1ccc2c(O[C@@H]3C[C@H]4C(=O)N[C@]5(C(=O)NS(=O)(=O)C6CC6)C[C@H]5/C=C\CCCCC[C@H](NC(=O)N5CCC(CC(=O)O)CC5)C(=O)N4C3)cc(-c3nc(C(C)C)cs3)nc2c1C,0.9,0.8,2.2,161,7,3,1,0.2,0.1,21
COc1ccc2c(O[C@@H]3C[C@H]4C(=O)N[C@]5(C(=O)NS(=O)(=O)C6CC6)C[C@H]5/C=C\CCCCC[C@H](NC(=O)N5CC6CCCC6C5)C(=O)N4C3)cc(-c3nc(C(C)C)cs3)nc2c1C (some centres undefined),5,0.3,0.3,83,23,15,1,0.1,0.01,11
COc1ccc2c(O[C@@H]3C[C@H]4C(=O)N[C@]5(C(=O)NS(=O)(=O)C6CC6)C[C@H]5/C=C\CCCCC[C@H](NC(=O)N5CCC(c6ccccc6)CC5)C(=O)N4C3)cc(-c3nc(C(C)C)cs3)nc2c1C,7,0.9,1.6,386,182,30,5,,0.2,69
COc1ccc2c(O[C@@H]3C[C@H]4C(=O)N[C@]5(C(=O)NS(=O)(=O)C6CC6)C[C@H]5/C=C\CCCCC[C@H](NC(=O)N5CCC(N6CCCC6)CC5)C(=O)N4C3)cc(-c3nc(C(C)C)cs3)nc2c1C,2,0.5,0.6,,1620,98,12,1.9,0.5,102
COc1ccc2c(O[C@@H]3C[C@H]4C(=O)N[C@]5(C(=O)NS(=O)(=O)C6CC6)C[C@H]5/C=C\CCCCC[C@H](NC(=O)N5CCN(C6CCCC6)CC5)C(=O)N4C3)cc(-c3nc(C(C)C)cs3)nc2c1C,2,0.3,0.5,477,169,32,5,,0.1,60
CC(C)(C)NC(=O)N[C@H](C(=O)N1C[C@H]2[C@@H]([C@H]1C(=O)NC(CC1CCC1)C(=O)C(N)=O)C2(C)C)C(C)(C)C (some centres undefined) [BOCEPREVIR],,,,40,,,12000,,400,700
CC[C@@H]1C[C@]1(NC(=O)[C@@H]1C[C@@H]2CN1C(=O)[C@H](C(C)(C)C)NC(=O)OCC(C)(C)CCCCc1cccc3c1CN(C3)C(=O)O2)C(=O)NS(=O)(=O)C1CC1 [VANIPREVIR],,,,,,,,,1.6,

# — ChEMBL document CHEMBL2034968, “Discovery of novel urea-based hepatitis C protease inhibitors with high potency against protease-inhibitor-resistant mutants” (J Med Chem, 2012)
